Assay results reported in the supplement of paper PMC10702517.
± gives the standard deviation.

Tests used:
[1] = chemical recovery from spiked human plasma; higher = better extraction; conditions: pooled human plasma
[2] = chemical recovery into PDMS from spiked human plasma; higher = better extraction; conditions: pooled human plasma, extraction method: PES with PDMS
[3] = chemical recovery by SPE of plasma after PDMS sampling; higher = better extraction; conditions: pooled human plasma, extraction method: HLB SPE of plasma after PES
[4] = extraction method: PES+SPE (3 d PDMS equilibration then HLB SPE)
[5] = extraction method: SPE only (HLB 96-well)
[6] = extraction method: SPE only (HLB 96-well), PES comparison experiment
[7] = extraction method: solvent precipitation (ACN + hexane)
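Wherever chemical recovery by SPE of plasma after PDMS sampling is given: over 400 spiked chemicals quantified by LC-HRMS or GC-HRMS via internal standard calibration, recovery relative to spike mix added to unspiked plasma extract to correct matrix effects.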

Row | SMILES | chemical recovery [1, 4] [%] | chemical recovery [1, 5] [%] | chemical recovery [1, 6] [%] | chemical recovery [1, 7] [%] | chemical recovery into PDMS ([2]; equilibration time (d): 1) [%] | chemical recovery into PDMS ([2]; equilibration time (d): 3) [%] | chemical recovery into PDMS ([2]; equilibration time (d): 6) [%] | chemical recovery by SPE of plasma ([3]; equilibration time (d): 1) [%] | chemical recovery by SPE of plasma ([3]; equilibration time (d): 3) [%] | chemical recovery by SPE of plasma ([3]; equilibration time (d): 6) [%]
1 | CC(C)c1ccc(NC(=O)N(C)C)cc1 [Isoproturon] | 46.2 ± 4.8 | 43.1 ± 2.7 | 53.4 ± 6.7 | 74.8 ± 3.5 | 37.1 ± 2.3 | 40.1 ± 2.3 | 40.4 ± 0.94 | 5.76 ± 0.47 | 5.5 ± 0.88 | 3.08 ± 0.39
2 | CCCCCCCCCCCC(=O)N(CCO)CCO [Lauryl diethanolamide] |  |  | 51.6 ± 7.8 |  | 16.8 ± 3 | 24.3 ± 2.5 | 26.3 ± 2.7 | 24.9 ± 2.9 | 18.5 ± 3.1 | 13.2 ± 2.9
3 | O=C1Nc2ccc(Cl)cc2C(c2ccccc2Cl)=NC1O (stereo not drawn) [Lorazepam] | 36.5 ± 2.4 | 30.9 ± 2.8 | 45.6 ± 7 | 72.1 ± 3.6 | 4.25 ± 0.37 | 8.29 ± 1.1 | 9.18 ± 1.4 | 38.9 ± 5.5 | 38.9 ± 3 | 31.1 ± 1.8
4 | Cc1cc(Cl)ccc1OCC(=O)O [MCPA] | 46.2 ± 2.6 | 43.1 ± 3 | 59.9 ± 5.7 | 71.8 ± 7.4 | 0.00252 ± 0.0044 | 0.00652 ± 0.0057 |  | 56.1 ± 11 | 64.2 ± 5.6 | 58.8 ± 3.1
5 | COC(=O)Nc1nc2cc(C(=O)c3ccccc3)ccc2[nH]1 [Mebendazole] | 71.2 ± 11 | 45 ± 2.8 | 42.1 ± 5.8 | 77.3 ± 3.4 | 13.7 ± 1.6 | 21 ± 1.4 | 23.6 ± 1.8 | 18.4 ± 2.3 | 14 ± 1.4 | 8.71 ± 0.66
6 | CC(=O)[C@@]1(O)CC[C@H]2[C@@H]3C[C@H](C)C4=CC(=O)CC[C@]4(C)[C@H]3CC[C@@]21C [Medroxyprogesterone] |  |  | 47.7 ± 7 |  | 40.5 ± 2.4 | 46.2 ± 3.4 | 44.5 ± 6.2 |  |  | 1.02 ± 1.8
7 | CC12CC3CC(C)(C1)CC(N)(C3)C2 [Memantine] | 14.8 ± 4.7 | 46.6 ± 1.4 | 45.1 ± 6.8 | 47.1 ± 4.5 | 3.61 ± 1.9 | 4.46 ± 2.7 | 3.08 ± 2.4 | 6.36 ± 0.42 | 7.03 ± 1.2 | 5.53 ± 0.96
8 | COCC(=O)N(c1c(C)cccc1C)C(C)C(=O)OC (stereo not drawn) [Metalaxyl] |  |  | 50.3 ± 7.6 | 70.2 ± 2.1 | 33.1 ± 0.4 | 36.7 ± 3.2 | 36.9 ± 0.38 | 5.41 ± 0.46 | 5.16 ± 0.64 | 0.955 ± 1.6
9 | Cc1cccc(C)c1N(Cn1cccn1)C(=O)C[S+](C)[O-] (stereo not drawn) [Metazachlor BH 479-11] | 46 ± 4.5 | 50.3 ± 0.97 | 51.8 ± 4.5 | 68.7 ± 3.1 | 5.75 ± 0.43 | 9.79 ± 2.3 | 11.1 ± 1.1 | 59.7 ± 9 | 57.3 ± 4.7 | 49.7 ± 6.9
10 | Cc1cccc(C)c1N(Cn1cccn1)C(=O)C(=O)O [Metazachlor OA] |  |  | 50.4 ± 3.9 |  |  |  | 0.0244 ± 0.042 | 56.9 ± 8.4 | 63.4 ± 2.8 | 57.2 ± 4.4
11 | Cc1cccc(C)c1N(Cn1cccn1)C(=O)CCl [Metazachlor] | 42.8 ± 5 | 38.6 ± 2.5 | 53.5 ± 7.4 | 66.2 ± 2.7 | 40.1 ± 1.9 | 42.9 ± 2.5 | 42.7 ± 2.1 | 1.5 ± 0.11 | 1.57 ± 0.29 | 0.82 ± 0.13
12 | CC1(C)CCC(Cc2ccc(Cl)cc2)C1(O)Cn1cncn1 (stereo not drawn) [Metconazole] |  |  | 46.3 ± 8.6 | 74.3 ± 3.4 | 39.4 ± 2.5 | 41.9 ± 2.7 | 41.91 ± 0.15 | 2.06 ± 0.36 | 1.76 ± 0.4 | 1.11 ± 0.42
13 | Cc1cc(O)cc(C)c1[S+](C)[O-] (stereo not drawn) [Methiocarb-sulfoxide phenol] |  | 45.3 ± 8.7 | 54.3 ± 6.8 | 78.8 ± 5.1 | 18.7 ± 0.39 | 20.6 ± 0.91 | 20.7 ± 1.2 | 66.4 ± 8.3 | 66.7 ± 4.1 | 61.6 ± 2.4
14 | Cn1ncc(N)c(Cl)c1=O [Methyldesphenylchloridazon] |  |  | 35.8 ± 1.2 |  | 1.07 ± 0.26 | 1.44 ± 0.31 | 1.24 ± 1.1 | 24.3 ± 8.3 | 21.3 ± 7.1 | 25 ± 8.3
15 | CS(=O)(=O)c1ccccc1 [Methylphenylsulfone] |  | 19.9 ± 3.2 |  | 68 ± 24 | 94.1 ± 26 | 98.5 ± 33 | 100 ± 28 |  | 104 ± 9.2 | 
16 | CCc1cccc(C)c1N(C(=O)C(=O)O)C(C)COC (stereo not drawn) [Metolachlor OA] | 40.1 ± 4.2 | 35.7 ± 1.4 | 54.1 ± 5.2 | 73.7 ± 3.3 | 19 ± 0.56 | 21.5 ± 1.7 | 21 ± 0.44 | 32.4 ± 6.7 |  | 30.3 ± 2.7
17 | CCc1cccc(C)c1N(C(=O)CS(=O)(=O)O)[C@@H](C)C(=O)O [Metolachlor-NOA 413-173] |  | 35.6 ± 3.7 | 22.7 ± 9.6 |  | 1.97 ± 4.4 | 9.48 ± 1.4 | 7.51 ± 7 |  | 27.8 ± 9.2 | 34.7 ± 5.3
18 | CCc1cccc(C)c1N(C(=O)CCl)C(C)COC (stereo not drawn) [Metolachlor] | 37.9 ± 5.3 | 38.1 ± 1.9 | 47.6 ± 6.7 |  | 37.3 ± 1.4 | 40.7 ± 3.2 | 40.6 ± 1.1 | 0.504 ± 0.043 | 0.63 ± 0.12 | 0.323 ± 0.0041
19 | CSc1nnc(C(C)(C)C)c(=O)n1N [Metribuzin] | 49.7 ± 7.4 | 49 ± 2.9 | 54.2 ± 7.9 | 71.8 ± 2.9 | 25 ± 2.2 | 25.2 ± 1.9 | 29.4 ± 1.2 | 10.9 ± 1.3 | 15.3 ± 1.4 | 10.4 ± 1.8
20 | CN(C)c1ccc(C(=O)c2ccc(N(C)C)cc2)cc1 [Michler's ketone] |  | 34.4 ± 1.9 |  |  | 17.2 ± 9.7 | 15.5 ± 10 | 16.7 ± 4.2 | 1.38 ± 0.41 | 1.1 ± 0.12 | 0.502 ± 0.091
21 | Clc1ccc(COC(Cn2ccnc2)c2ccc(Cl)cc2Cl)c(Cl)c1 (stereo not drawn) [Miconazole] |  | 43.2 ± 6.1 | 40.4 ± 10 | 85.3 ± 8.5 | 33.6 ± 2.4 | 34.9 ± 3.2 | 31.5 ± 2.8 | 0.659 ± 0.14 | 0.405 ± 0.14 | 0.117 ± 0.082
22 | CC[C@@]1([C@@H]2O[C@@H]([C@H]3O[C@@](O)(CO)[C@H](C)C[C@@H]3C)C[C@@H]2C)CC[C@H]([C@]2(C)CC[C@]3(C[C@H](O)[C@@H](C)[C@@H]([C@@H](C)[C@@H](OC)[C@H](C)C(=O)O)O3)O2)O1 [Monensin] |  |  | 29.9 ± 6.6 | 1.03 ± 1.8 | 37.1 ± 2.8 | 38.6 ± 0.52 | 37.8 ± 2.2 | 3.19 ± 0.8 | 2.26 ± 0.39 | 1.33 ± 0.27
23 | CCCCC(C#N)(Cn1cncn1)c1ccc(Cl)cc1 (stereo not drawn) [Myclobutanil] |  |  | 48.5 ± 8.4 | 79.3 ± 2.2 | 38.4 ± 1.9 | 42.1 ± 3.6 | 41.6 ± 0.64 | 1.71 ± 0.26 | 1.32 ± 0.3 | 
24 | CCCCCCCCCCCCCC[N+](C)(C)[O-] [N,N-Dimethyltetradecylamine-N-oxide] |  | 71.5 ± 26 | 42.7 ± 8.4 |  | 0.599 ± 0.55 | 1.2 ± 0.35 | 1.01 ± 0.26 | 15.7 ± 3.1 | 12.5 ± 4.9 | 8.54 ± 5.7
25 | CCCCCCCCCCCCCCN(C)C [N,N-Dimethyltetradecylamine] |  |  | 39.3 ± 8.7 |  |  | 0.0161 ± 0.022 |  | 0.241 ± 0.23 | 0.0666 ± 0.015 | 0.0207 ± 0.085
